Data from ChEMBL document CHEMBL1782041, “Novel non-peptide beta-secretase inhibitors derived from structure-based virtual screening and bioassay” (Bioorg Med Chem Lett, 2009).
Peptide text beside a SMILES is read from it.

Tests used:
Beta-secretase 1 [1] = molecular target: T1, Beta-secretase 1 (Homo sapiens, UniProt P56817); experiment: Inhibition of BACE1 using peptide substrate Rh-EVNLDAEFKQuencher by fluorescence resonance energy transfer (FRET) assay
Beta-secretase 1 [2] = molecular target: T1, Beta-secretase 1; experiment: Inhibition of BACE1 using peptide substrate Rh-EVNLDAEFKQuencher at 100 uM by fluorescence resonance energy transfer (FRET) assay

T1 sequence (P56817 whole entry): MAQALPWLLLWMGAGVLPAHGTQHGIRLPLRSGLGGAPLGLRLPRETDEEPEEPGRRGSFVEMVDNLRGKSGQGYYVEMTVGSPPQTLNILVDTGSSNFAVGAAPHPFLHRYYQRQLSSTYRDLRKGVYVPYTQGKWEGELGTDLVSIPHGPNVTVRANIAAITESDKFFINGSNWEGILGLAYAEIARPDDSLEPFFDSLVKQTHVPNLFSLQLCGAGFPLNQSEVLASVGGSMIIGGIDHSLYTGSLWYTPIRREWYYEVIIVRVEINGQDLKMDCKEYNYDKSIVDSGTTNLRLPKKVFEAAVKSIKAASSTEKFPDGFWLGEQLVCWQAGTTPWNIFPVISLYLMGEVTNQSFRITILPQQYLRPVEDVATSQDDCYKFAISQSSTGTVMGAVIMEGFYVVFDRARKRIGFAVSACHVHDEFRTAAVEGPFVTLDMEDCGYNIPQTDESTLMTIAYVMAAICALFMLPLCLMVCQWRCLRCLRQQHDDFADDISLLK

IC50 (Beta-secretase 1 [1])	inhibition (Beta-secretase 1 [2])	Compound
3 µM		Cc1nc(NC(=NC(=O)Nc2ccccc2)NC(=O)Nc2ccccc2)nc2ccccc12
2.8 µM	80%	COc1ccc(CCNC(=O)CSc2nc3ccc(Nc4nc(N5CCCCC5)nc(N5CCCCC5)n4)cc3s2)cc1OC
34.5 µM	75%	N#Cc1c(NC(=O)COC(=O)CSc2nc(-c3ccccc3)cc(-c3ccccc3)n2)sc2c1CCCC2
50 µM	68%	COc1ccc(-c2cc(-c3ccc(Cl)cc3)c(C#N)c(SCC(=O)N(c3ccccc3)c3ccc4ccccc4c3)n2)cc1
> 100 µM	78%	O=C(Nc1ncc(Cc2cccc(Cl)c2Cl)s1)c1ccc(CSc2nnc(-c3ccncc3)n2-c2ccccc2)cc1
20 µM	100%	N#Cc1c(-c2ccccc2)cc(-c2ccccc2)nc1SCC(=O)Nc1cccc([N+](=O)[O-])c1
0.12 µM	100%	CC[C@H](C)[C@H](NC(=O)[C@H](CCC(=O)O)NC(=O)[C@H](CCC(=O)O)NC(=O)[C@@H](NC(=O)[C@@H](N)CCCCN)[C@@H](C)O)C(=O)N[C@@H](CO)C(=O)N[C@@H](CCC(=O)O)C(=O)N[C@H](C(=O)N[C@@H](CC(N)=O)C(=O)N[C@@H](CC(C)C)[C@@H](O)CC(=O)N[C@H](C(=O)N[C@@H](C)C(=O)N[C@@H](CCC(=O)O)C(=O)N[C@@H](Cc1ccccc1)C(=O)O)C(C)C)C(C)C (HELM PEPTIDE1{K.T.E.E.I.S.E.V.N.[CC(C)C[C@H](N[*:1])[C@@H](O)CC(=O)[*:2]].V.A.E.F}$$$$V2.0)
	100%	Cc1nc(N/C(=N\C(=O)Nc2ccccc2)NC(=O)Nc2ccccc2)nc2ccccc12
90 µM	50%	O=S(=O)(c1ccc(Br)cc1)N(c1cnn(Cc2ccc(Cl)c(Cl)c2)c1)S(=O)(=O)c1ccc(Br)cc1
28.6 µM	80%	Cc1cc(C)nc(N/C(=N\C(=O)N2c3ccccc3Sc3ccccc32)Nc2cccc([N+](=O)[O-])c2)n1
100 µM	48%	Cc1nn(-c2ccccc2)c(Cl)c1C1Nc2ccccc2-c2nnc(SCc3ccccc3)nc2O1 (configuration not stated)
10.2 µM	90%	O=C(CSc1nc2ccc(Nc3nc(N4CCCCC4)nc(N4CCCCC4)n3)cc2s1)Nc1ccccc1F
12.2 µM	87%	N#Cc1c(NC(=O)C(F)(F)C(F)(F)C(F)(F)C(F)(F)C(=O)Nc2sc3c(c2C#N)CCCCCC3)sc2c1CCCCCC2
100 µM	75%	O=C(CSc1nnc(Cc2c[nH]c3ccccc23)n1Cc1ccccc1)c1c[nH]c2ccccc12
50 µM	80%	CCc1nnc(NC(=O)CSc2nc(-c3ccc(F)cc3)cc(-c3ccccc3)c2C#N)s1
118 µM	45%	N#Cc1c(-c2ccc(F)cc2)cc(-c2ccccc2)nc1SCC(=O)NC12CC3CC(CC(C3)C1)C2
21 µM	83%	Cc1ccc(NC(=O)Cc2nnc(SCC(=O)Nc3nc(-c4ccccc4)cs3)n2C)cc1
